Measured values taken from patent publication US10414811B2, “Protease-resistant lipidated GLP-1 analogs” (MEDIMMUNE LIMITED, priority 2015, dated 2019).
Read-outs that look alike come from different tables or passages of the source. Numbered stars: 1 amine (or outer) side, 2 acyl side, 3 side chain; on linkers, the order of the positions; unused ones are H or OH. Square brackets hold non-standard residues; d marks the D form. Side chains are listed from the residue outwards. Peptide text beside a SMILES is read from it. * marks the point of attachment. γGlu = O=C(O)[C@H](CCC(=O)[*:2])N[*:1]; Stearoyl = CCCCCCCCCCCCCCCCCC(=O)*; Palmitoyl = CCCCCCCCCCCCCCCC(=O)*; αMeF = C[C@](N)(Cc1ccccc1)C(=O)O; Myristoyl = CCCCCCCCCCCCCC(=O)*; αMeK = C[C@](N)(CCCCN)C(=O)O; Lauroyl = CCCCCCCCCCCC(=O)*; αMeS = C[C@](N)(CO)C(=O)O; AEEA = NCCOCCOCC(=O)O; Aib = CC(C)(N)C(=O)O

Assays:
[1] = target: T1, human GLP-1 receptor (GLP-1R) (Homo sapiens, UniProt P43220); assay: cAMP assay, human GLP-1R cells; format: cell-based; conditions: bis-lipidated peptides
T1 construct: expressed in transfected cells
Method in brief: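 Peptide-stimulated cAMP measured by two-step HTRF after a 30 min room-temperature incubation with receptor-expressing cells (hGLP-1R, hGIPR at 1×10^5 cells/ml; hGCGR at 2×10^5 cells/ml). Duplicate dilutions; EC50 from 4-parameter logistic fit of % Delta F.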

[2] = target: T2, GLP-1R (INS1e assay) (Rattus norvegicus, UniProt P32301); assay: INS1e assay, cAMP activity at GLP-1R; format: cell-based; conditions: bis-lipidated peptides
T2 construct: endogenous in cells; host or cells: INS-1E cells
T2 sequence (P32301 22-463): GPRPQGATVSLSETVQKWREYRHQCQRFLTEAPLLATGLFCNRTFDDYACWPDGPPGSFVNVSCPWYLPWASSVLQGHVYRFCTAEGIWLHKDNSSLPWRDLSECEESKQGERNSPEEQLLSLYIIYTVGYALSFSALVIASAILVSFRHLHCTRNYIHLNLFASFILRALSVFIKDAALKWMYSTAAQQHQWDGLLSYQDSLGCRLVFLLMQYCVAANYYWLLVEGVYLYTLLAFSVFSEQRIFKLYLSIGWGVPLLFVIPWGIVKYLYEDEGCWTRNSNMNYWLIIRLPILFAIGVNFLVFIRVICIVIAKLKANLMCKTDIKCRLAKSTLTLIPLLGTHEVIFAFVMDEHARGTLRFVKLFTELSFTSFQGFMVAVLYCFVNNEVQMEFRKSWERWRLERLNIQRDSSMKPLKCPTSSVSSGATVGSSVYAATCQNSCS
Description: cAMP levels are measured using a commercially available cAMP dynamic 2 HTRF kit (Cisbio, Cat #62AM4PEJ), following the two step protocol as per manufacturer's recommendations. In brief; anti-cAMP cryptate (donor fluorophore) and cAMP-d2 (acceptor fluorophore) are made up separately by diluting each 1/20 in conjugate & lysis buffer provided in the kit. 5 μL anti-cAMP cryptate is added to wells of the assay plate, and 5 μL cAMP-d2 is added to wells except non-specific binding (NSB) wells, to which conjugate and lysis buffer are added. […] EC50 values of the synthetic peptides determined in cAMP assays are then determined.

[3] = mean of n1 and n2, read-out: Primary assay EC50 Mean pM GLP-1R
[4] = replicate n1, read-out: Primary assay EC50 GLP-1R n1
[5] = replicate n2, read-out: Primary assay EC50 GLP-1R n2
[6] = mean of n1 and n2, read-out: INS1e assay EC50 Mean pM GLP-1R
[7] = replicate n1, read-out: INS1e assay EC50 GLP-1R n1
[8] = replicate n2, read-out: INS1e assay EC50 GLP-1R n2

T1 sequence (P43220 24-463): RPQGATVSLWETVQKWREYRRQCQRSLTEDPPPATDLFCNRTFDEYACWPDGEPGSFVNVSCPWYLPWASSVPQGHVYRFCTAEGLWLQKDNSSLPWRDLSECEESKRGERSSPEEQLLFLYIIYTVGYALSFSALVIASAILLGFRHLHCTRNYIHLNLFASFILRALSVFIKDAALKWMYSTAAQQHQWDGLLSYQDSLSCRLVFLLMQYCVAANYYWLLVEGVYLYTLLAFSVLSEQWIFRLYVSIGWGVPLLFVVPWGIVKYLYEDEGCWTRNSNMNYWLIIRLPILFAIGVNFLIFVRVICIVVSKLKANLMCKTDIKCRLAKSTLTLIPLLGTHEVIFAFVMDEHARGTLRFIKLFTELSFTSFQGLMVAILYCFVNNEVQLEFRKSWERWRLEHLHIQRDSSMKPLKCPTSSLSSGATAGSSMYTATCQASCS

SMILES | EC50 [1, 3] | EC50 [1, 4] | EC50 [1, 5] | EC50 [2, 6] | EC50 [2, 7] | EC50 [2, 8]
CCCCCCCCCCCC(=O)N[C@@H](CCC(=O)NCCOCCOCC(=O)NCCOCCOCC(=O)NCCCC[C@H](NC(=O)[C@H](C)NC(=O)[C@@H](NC(=O)[C@H](Cc1ccccc1)NC(=O)[C@H](CCC(=O)O)NC(=O)[C@](C)(CCCCN)NC(=O)[C@H](C)NC(=O)[C@H](C)NC(=O)[C@H](CCC(=O)O)NC(=O)CNC(=O)[C@H](CCC(=O)O)NC(=O)[C@H](CC(C)C)NC(=O)[C@H](Cc1ccc(O)cc1)NC(=O)[C@H](CO)NC(=O)[C@H](CO)NC(=O)[C@H](CCCCNC(=O)COCCOCCNC(=O)COCCOCCNC(=O)CC[C@H](NC(=O)CCCCCCCCCCC)C(=O)O)NC(=O)[C@H](CC(=O)O)NC(=O)[C@H](CO)NC(=O)[C@@H](NC(=O)[C@](C)(Cc1ccccc1)NC(=O)[C@H](CO)NC(=O)CNC(=O)[C@H](CCC(=O)O)NC(=O)C(C)(C)NC(=O)[C@@H](N)Cc1c[nH]cn1)[C@@H](C)O)[C@@H](C)CC)C(=O)N[C@H](C(=O)N[C@H](C(=O)N[C@@H](CCC(=O)O)C(=O)NCC(=O)NCC(N)=O)C(C)C)C(C)C)C(=O)O [compound 257] (H-H[Aib]EGS[αMeF]TSDK([AEEA-AEEA-γGlu-Lauroyl])SSYLEGEAA[αMeK]EFIAK([AEEA-AEEA-γGlu-Lauroyl])VVEGG-NH2) | 8.4 pM | 4.36 pM | 12.4 pM | 577 pM | 812 pM | 342 pM
CCCCCCCCCCCC(=O)N[C@@H](CCC(=O)NCCOCCOCC(=O)NCCOCCOCC(=O)NCCCC[C@H](NC(=O)[C@H](CO)NC(=O)[C@](C)(CO)NC(=O)[C@@H](NC(=O)[C@H](CC(=O)O)NC(=O)[C@H](CO)NC(=O)[C@@H](NC(=O)[C@](C)(Cc1ccccc1)NC(=O)[C@H](CO)NC(=O)CNC(=O)[C@H](CCC(=O)O)NC(=O)C(C)(C)NC(=O)[C@@H](N)Cc1c[nH]cn1)[C@@H](C)O)C(C)C)C(=O)N[C@@H](CC(C)C)C(=O)N[C@@H](CCC(=O)O)C(=O)NCC(=O)N[C@@H](CCC(=O)O)C(=O)N[C@@H](C)C(=O)N[C@@H](C)C(=O)N[C@@](C)(CCCCN)C(=O)N[C@@H](CCC(=O)O)C(=O)N[C@@H](Cc1ccccc1)C(=O)N[C@H](C(=O)N[C@@H](CCCCNC(=O)COCCOCCNC(=O)COCCOCCNC(=O)CC[C@H](NC(=O)CCCCCCCCCCC)C(=O)O)C(=O)N[C@@H](Cc1c[nH]c2ccccc12)C(=O)N[C@H](C(=O)N[C@H](C(=O)N[C@@H](CCC(=O)O)C(=O)NCC(=O)NCC(N)=O)C(C)C)C(C)C)[C@@H](C)CC)C(=O)O [compound 262] (H-H[Aib]EGS[αMeF]TSDV[αMeS]SK([AEEA-AEEA-γGlu-Lauroyl])LEGEAA[αMeK]EFIK([AEEA-AEEA-γGlu-Lauroyl])WVVEGG-NH2; N-terminus assumed) | 5.4 pM | 6.73 pM | 4.14 pM | 552 pM | 700 pM | 403 pM
CCCCCCCCCCCC(=O)N[C@@H](CCC(=O)NCCOCCOCC(=O)NCCOCCOCC(=O)NCCCC[C@H](NC(=O)[C@H](C)NC(=O)[C@@H](NC(=O)[C@](C)(Cc1ccccc1)NC(=O)[C@H](CCC(=O)O)NC(=O)[C@](C)(CCCCN)NC(=O)[C@H](C)NC(=O)[C@H](C)NC(=O)[C@H](CCC(=O)O)NC(=O)CNC(=O)[C@H](CCC(=O)O)NC(=O)[C@H](CC(C)C)NC(=O)[C@H](CCCCNC(=O)COCCOCCNC(=O)COCCOCCNC(=O)CC[C@H](NC(=O)CCCCCCCCCCC)C(=O)O)NC(=O)[C@H](CO)NC(=O)[C@](C)(CO)NC(=O)[C@@H](NC(=O)[C@H](CC(=O)O)NC(=O)[C@H](CO)NC(=O)[C@@H](NC(=O)[C@](C)(Cc1ccccc1)NC(=O)[C@H](CO)NC(=O)CNC(=O)[C@H](CCC(=O)O)NC(=O)C(C)(C)NC(=O)[C@@H](N)Cc1c[nH]cn1)[C@@H](C)O)C(C)C)[C@@H](C)CC)C(=O)N[C@H](C(=O)N[C@H](C(=O)N[C@@H](CCC(=O)O)C(=O)NCC(=O)NCC(N)=O)C(C)C)C(C)C)C(=O)O [compound 405] (H-H[Aib]EGS[αMeF]TSDV[αMeS]SK([AEEA-AEEA-γGlu-Lauroyl])LEGEAA[αMeK]E[αMeF]IAK([AEEA-AEEA-γGlu-Lauroyl])VVEGG-NH2) | – | – | 3.66 pM | – | 110 pM | –
CCCCCCCCCCCCCC(=O)N[C@@H](CCC(=O)NCCOCCOCC(=O)NCCOCCOCC(=O)NCCCC[C@H](NC(=O)[C@H](C)NC(=O)[C@@H](NC(=O)[C@](C)(Cc1ccccc1)NC(=O)[C@H](CCC(=O)O)NC(=O)[C@](C)(CCCCN)NC(=O)[C@H](C)NC(=O)[C@H](C)NC(=O)[C@H](CCC(=O)O)NC(=O)CNC(=O)[C@H](CCC(=O)O)NC(=O)[C@H](CC(C)C)NC(=O)[C@H](CCCCNC(=O)COCCOCCNC(=O)COCCOCCNC(=O)CC[C@H](NC(=O)CCCCCCCCCCCCC)C(=O)O)NC(=O)[C@H](CO)NC(=O)[C@](C)(CO)NC(=O)[C@@H](NC(=O)[C@H](CC(=O)O)NC(=O)[C@H](CO)NC(=O)[C@@H](NC(=O)[C@](C)(Cc1ccccc1)NC(=O)[C@H](CO)NC(=O)CNC(=O)[C@H](CCC(=O)O)NC(=O)C(C)(C)NC(=O)[C@@H](N)Cc1c[nH]cn1)[C@@H](C)O)C(C)C)[C@@H](C)CC)C(=O)N[C@H](C(=O)N[C@H](C(=O)N[C@@H](CCC(=O)O)C(=O)NCC(=O)NCC(N)=O)C(C)C)C(C)C)C(=O)O [compound 408] (H-H[Aib]EGS[αMeF]TSDV[αMeS]SK([AEEA-AEEA-γGlu-Myristoyl])LEGEAA[αMeK]E[αMeF]IAK([AEEA-AEEA-γGlu-Myristoyl])VVEGG-NH2) | 8.9 pM | 9.96 pM | 7.89 pM | 412 pM | 376 pM | 448 pM
CCCCCCCCCCCCCCCC(=O)N[C@@H](CCC(=O)NCCOCCOCC(=O)NCCOCCOCC(=O)NCCCC[C@H](NC(=O)[C@H](C)NC(=O)[C@@H](NC(=O)[C@](C)(Cc1ccccc1)NC(=O)[C@H](CCC(=O)O)NC(=O)[C@](C)(CCCCN)NC(=O)[C@H](C)NC(=O)[C@H](C)NC(=O)[C@H](CCC(=O)O)NC(=O)CNC(=O)[C@H](CCC(=O)O)NC(=O)[C@H](CC(C)C)NC(=O)[C@H](CCCCNC(=O)COCCOCCNC(=O)COCCOCCNC(=O)CC[C@H](NC(=O)CCCCCCCCCCCCCCC)C(=O)O)NC(=O)[C@H](CO)NC(=O)[C@](C)(CO)NC(=O)[C@@H](NC(=O)[C@H](CC(=O)O)NC(=O)[C@H](CO)NC(=O)[C@@H](NC(=O)[C@](C)(Cc1ccccc1)NC(=O)[C@H](CO)NC(=O)CNC(=O)[C@H](CCC(=O)O)NC(=O)C(C)(C)NC(=O)[C@@H](N)Cc1c[nH]cn1)[C@@H](C)O)C(C)C)[C@@H](C)CC)C(=O)N[C@H](C(=O)N[C@H](C(=O)N[C@@H](CCC(=O)O)C(=O)NCC(=O)NCC(N)=O)C(C)C)C(C)C)C(=O)O [compound 409] (H-H[Aib]EGS[αMeF]TSDV[αMeS]SK([AEEA-AEEA-γGlu-Palmitoyl])LEGEAA[αMeK]E[αMeF]IAK([AEEA-AEEA-γGlu-Palmitoyl])VVEGG-NH2) | 36.1 pM | 39.5 pM | 32.6 pM | 216 pM | 183 pM | 249 pM
CCCCCCCCCCCCCCCCCC(=O)N[C@@H](CCC(=O)NCCOCCOCC(=O)NCCOCCOCC(=O)NCCCC[C@H](NC(=O)[C@H](C)NC(=O)[C@@H](NC(=O)[C@](C)(Cc1ccccc1)NC(=O)[C@H](CCC(=O)O)NC(=O)[C@](C)(CCCCN)NC(=O)[C@H](C)NC(=O)[C@H](C)NC(=O)[C@H](CCC(=O)O)NC(=O)CNC(=O)[C@H](CCC(=O)O)NC(=O)[C@H](CC(C)C)NC(=O)[C@H](CCCCNC(=O)COCCOCCNC(=O)COCCOCCNC(=O)CC[C@H](NC(=O)CCCCCCCCCCCCCCCCC)C(=O)O)NC(=O)[C@H](CO)NC(=O)[C@](C)(CO)NC(=O)[C@@H](NC(=O)[C@H](CC(=O)O)NC(=O)[C@H](CO)NC(=O)[C@@H](NC(=O)[C@](C)(Cc1ccccc1)NC(=O)[C@H](CO)NC(=O)CNC(=O)[C@H](CCC(=O)O)NC(=O)C(C)(C)NC(=O)[C@@H](N)Cc1c[nH]cn1)[C@@H](C)O)C(C)C)[C@@H](C)CC)C(=O)N[C@H](C(=O)N[C@H](C(=O)N[C@@H](CCC(=O)O)C(=O)NCC(=O)NCC(N)=O)C(C)C)C(C)C)C(=O)O [compound 410] (H-H[Aib]EGS[αMeF]TSDV[αMeS]SK([AEEA-AEEA-γGlu-Stearoyl])LEGEAA[αMeK]E[αMeF]IAK([AEEA-AEEA-γGlu-Stearoyl])VVEGG-NH2) | 187 pM | 248 pM | 126 pM | 780 pM | 698 pM | 862 pM
